Values quoted from earlier work, collected in patent US9839630B2, “Method of preparing (+)-1,4-dihydro-7-[(3S,4S)-3-methoxy-4-(methylamino)-1-pyrrolidinyl]-4-oxo-1-(2-thiazolyl)-1,8-naphthyridine-3-carboxylic acid” (Sunesis Pharmaceuticals, Inc., priority 2008, dated 2017).

Legend:
[1] = system: various cancer cell lines; conditions: literature
xenografts = conditions: literature
ovarian cancer = conditions: human cancer patients, clinical trials
acute myeloid leukemia = conditions: human cancer patients, clinical trials
[2] = data of WO 2007/146335

SMILES | preclinical activity against various cancer cell lines [1] | preclinical activity against xenografts (xenografts) | clinical activity against ovarian cancer (ovarian cancer) | clinical activity against acute myeloid leukemia (acute myeloid leukemia) | activity in a cytotoxicity assay [2]
CN[C@H]1CN(c2ccc3c(=O)c(C(=O)O)cn(-c4nccs4)c3n2)C[C@@H]1OC [SNS-595, (+)-1,4-dihydro-7-[(3S,4S)-3-methoxy-4-(methylamino)-1-pyrrolidinyl]-4-oxo-1-(2-thiazolyl)-1,8-naphthyridine-3-carboxylic acid] | preclinical activity | preclinical activity | clinical activity | clinical activity | –
CO[C@H]1CN(c2ccc3c(=O)c(C(=O)O)cn(-c4nccs4)c3n2)C[C@@H]1N [N-desmethyl compound, (+)-1,4-dihydro-7-[(3S,4S)-3-methoxy-4-amino-1-pyrrolidinyl]-4-oxo-1-(2-thiazolyl)-1,8-naphthyridine-3-carboxylic acid] | – | – | – | – | active
